These results are taken from patent publication US6011039A, “Aminopyridine derivatives” (Banyu Pharmaceutical Co., Ltd., priority 1996, dated 2000).

For test [1], the system named is NPY-induced feeding behavior. Briefly: Antagonistic Test Against NPY-Induced Feeding Behavior In Vivo. More on the design: species or system male SD rat. The following applies: 200 μg/head, into lateral ventricle, simultaneously with NPY (5 μg/head/10 μl); food intake for two hours; Duncan's test, p<0.05 significant. On the procedure: Pharmacological Test Example 2
(Antagonistic Test Against NPY-Induced Feeding Behavior In Vivo)
Under pentobarbital anesthesia (intraperitoneal single administration of 200 mg/kg), a chronic guide cannula (outer diameter: 0.8 mm, inner diameter: 0.5 mm, length: 10 mm) was inserted stereotaxically in the right lateral cerebral ventricle of a male SD rat (7 to 8 weeks old, 200 to 300 g) and fixed by a dental resin. The forward end position of the guide cannula was at 0.9 mm posterior to bregma, 1.2 mm to the right of the midline and 1.5 mm ventral to the brain surface, so that when an inner needle was inserted, the forward end extended beyond the forward end of the guide cannula by about 2 mm and reached the lateral ventricle. After a recovery period of about one week, NPY (5 μg/head/10 μl) was administered into the lateral ventricle. The test compound was simultaneously administered as mixed with NPY, and food intake for two hours after the administration was measured. With respect to the obtained result, a multiple comparative determination was carried out by Duncan's test, whereby p<0.05 was taken as significant.

Test [2] deals with T1, NPY Y1 receptor (Homo sapiens, UniProt P25929).
T1 construct: A membrane sample prepared from SK-N-MC cells derived from human neuroblastoma; endogenous in cells; host or cells: SK-N-MC
T1 sequence (P25929 1-384): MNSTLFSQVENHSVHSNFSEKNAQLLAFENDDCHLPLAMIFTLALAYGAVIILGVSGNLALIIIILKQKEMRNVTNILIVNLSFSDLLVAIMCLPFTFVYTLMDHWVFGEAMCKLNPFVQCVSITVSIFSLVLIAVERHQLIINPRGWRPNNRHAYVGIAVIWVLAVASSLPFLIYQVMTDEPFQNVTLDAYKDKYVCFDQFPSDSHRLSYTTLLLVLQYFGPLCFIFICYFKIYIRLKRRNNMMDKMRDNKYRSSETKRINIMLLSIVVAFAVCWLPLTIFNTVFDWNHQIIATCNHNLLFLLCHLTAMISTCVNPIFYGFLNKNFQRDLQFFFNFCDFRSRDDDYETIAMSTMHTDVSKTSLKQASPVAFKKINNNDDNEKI
Briefly: NPY Binding Inhibition Test ([125I] peptide YY binding to SK-N-MC cell membranes). The following applies: SK-N-MC membrane, 25° C., 2 hours, pH 7.4, 20,000 cpm [125I] peptide YY; read-out: IC50 (50% inhibition concentration against specific [125I] peptide YY binding). On the procedure:
Pharmacological Test Example 1
(NPY Binding Inhibition Test)
A membrane sample prepared from SK-N-MC cells derived from human neuroblastoma in which the expression of NPY Y1 receptor was reported, was incubated at 25° C. for 2 hours together with a test compound and 20,000 cpm of [^125 I] peptide YY (manufactured by Amersham Company) in an assay buffer (25 mM HEPES buffer solution containing 10 mM of magnesium chloride, 1 mM of phenylmethylsulfonyl fluoride, 0.1% of bacitracin and 0.5% of BSA, pH 7.4), and then subjected to filtration by a glass filter GF/C. After washing with a 50 mM Tris buffer solution containing 0.3% of BSA at pH 7.4, the radiation activity on the glass filter was measured by a gamma counter. The nonspecific binding was measured in the presence of 1 μM of peptide YY and the 50% inhibition concentration (IC50) of the test compound against specific [^125 I] peptide YY binding was obtained [Endocrinology, vol. 131, 2090 (1992)].

Each structure is given as a SMILES string.

`C=CCOC(=O)Nc1cccc(CNc2cc(N3CCOCC3)cc(CSc3nnc(CC)s3)n2)c1` [Example 4, 6-(5-ethyl-1,3,4-thiadiazol-2-ylthiomethyl)-4-morpholino-2-[3-(2-propenyloxycarbonylamino)benzylamino]pyridine]: the “increase in food intake induced by NPY” value in test [1] is reported as “significantly suppressed the increase in food intake induced by NPY”. In addition, the IC50 in test [2] came out at 0.33 nM.
